Holding throughout (experiment): inhibition of tumour cell growth, NCI panel, 48 h
Experiment [1] concerns ACHN.
Experiment [2] concerns T47D.
Experiment [3] deals with OVCAR-5.
Experiment [4] deals with SK-OV-3.
Experiment [5] deals with CCRF-CEM.
The test system of experiment [6] is COLO 205.
For experiment [7], the system named is IGROV-1.
In experiment [8] the test system is NCI-H23.
Experiment [9] concerns OVCAR-3.
Experiment [10] relates to BT-549.
The subject of experiment [11] is LOX IMVI.
Experiment [12] concerns SNB-75.
Experiment [13] concerns Hs-578T.
The test system of experiment [14] is HL-60.
The test system of experiment [15] is UACC-257.
Experiment [16] has as its system NCI-H226.
Experiment [17] relates to OVCAR-4.
The test system of experiment [18] is SK-MEL-5.
For experiment [19], the system named is TK-10.
For experiment [20], the system named is SK-MEL-28.

Ten molecules from ChEMBL document CHEMBL1201862, “PubChem BioAssay data set” (2004) can be followed below.

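Compound exposure: 48 hours, 5 concentrations, 96-well plates. GI50: concentration for 50% inhibition of growth.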 Active and inactive are the calls of the source. No stated cut-off is given here; in the data, active = GI50 up to about 1.1 µM and inactive = higher. Where a SMILES comes first, the peptide text is derived from it. [ ]: non-standard residue; d: D form. The star is where a group is joined. ξ: configuration not given here. ξPhe(4-NO2) = NC(Cc1ccc([N+](=O)[O-])cc1)C(=O)O; Boc = CC(C)(C)OC(=O)*; OBn = c1ccc(CO*)cc1

As for `CN1CC2CN(Cc3ccccc3)CCN2c2cccnc21` (stereo unspecified), the GI50 in [1] was 45.2 µM (inactive); in experiment [2], 53.7 µM (inactive); in [3], > 100 µM (inactive); in experiment [4], > 100 µM (inactive); in [5], 32.8 µM (inactive); in experiment [6], 36.6 µM (inactive). Moreover, the GI50 was 52.7 µM (inactive) in experiment [7]; 39 µM (inactive) in [8]; 41.1 µM (inactive) in experiment [9]; 33.3 µM (inactive) in experiment [10]; 20.9 µM (inactive) in experiment [11]; 41.3 µM (inactive) in [12]. In addition, the GI50 was 40.3 µM (inactive) in experiment [13]; 29 µM (inactive) in [14]; 40.8 µM (inactive) in experiment [15]; 57.7 µM (inactive) in [16]; 82.6 µM (inactive) in experiment [17]; 31.1 µM (inactive) in experiment [18]. The GI50 in [19] was > 100 µM (inactive).

On to `CC(C)Cc1ccc(C(C)/C=C2\CCC(CN3CCCCC3)C2=O)cc1` (stereo unspecified), for which the GI50 in experiment [1] is 6.98 µM (inactive); in [2], 5.09 µM (inactive); in experiment [3] it was 17.4 µM (inactive); in experiment [20], 3.21 µM (inactive); in [4], 20.5 µM (inactive); in experiment [5], 1.5 µM (inactive). Also, the GI50 in experiment [6] is 5.81 µM (inactive); in experiment [7], 4.25 µM (inactive); in [8], 7.29 µM (inactive); in [9], 4.03 µM (inactive); in [10], 18.5 µM (inactive); in experiment [11], 2.01 µM (inactive). The GI50 is 15.6 µM (inactive) in experiment [12]; 4.71 µM (inactive) in experiment [13]; 1.12 µM (inactive) in experiment [14]; 12.7 µM (inactive) in [15]; 14.7 µM (inactive) in experiment [16]; 3.78 µM (inactive) in [17]. The GI50 in experiment [18] was 13.5 µM (inactive); in experiment [19] it was 3.27 µM (inactive).

For the molecule `c1cc(-c2ccc(-c3ccc(-c4ccc(-c5ccncc5)o4)cc3)o2)ccn1`, the GI50 in experiment [1] was 24.6 µM (inactive); in experiment [2], 11.4 µM (inactive); in [3], 24.9 µM (inactive); in experiment [20] it was 21.2 µM (inactive); in experiment [4], 21.1 µM (inactive); in experiment [5] it was 5.68 µM (inactive). Also, the GI50 in [6] is 16.1 µM (inactive); in experiment [7], 19.1 µM (inactive); in [8], 16.9 µM (inactive); in experiment [9], 23 µM (inactive); in experiment [10], 15.7 µM (inactive); in experiment [11], 21.4 µM (inactive). The GI50 is 18.9 µM (inactive) in experiment [12]; 64.1 µM (inactive) in experiment [13]; 18.5 µM (inactive) in experiment [14]; 15.8 µM (inactive) in experiment [15]; 27.4 µM (inactive) in experiment [16]; 14.9 µM (inactive) in experiment [17]. The results for the GI50 in [18] and in experiment [19] were 13.2 µM (inactive) and 17 µM (inactive), respectively.

Regarding `CC(=O)C1(c2ccccc2)CCN(Cn2sc3nc(C)cc(C)c3c2=O)CC1`, the GI50 was 17.8 µM (inactive) in [1]; 55.6 µM (inactive) in [2]; 19.5 µM (inactive) in experiment [3]; 31.6 µM (inactive) in experiment [20]; 76.4 µM (inactive) in experiment [4]; 10.5 µM (inactive) in experiment [5]. The GI50 is 17.6 µM (inactive) in [6]; > 100 µM (inactive) in experiment [7]; 19.1 µM (inactive) in experiment [8]; 37.5 µM (inactive) in [9]; 38.8 µM (inactive) in [10]; 23.8 µM (inactive) in experiment [11]. In addition, the GI50 was 28.3 µM (inactive) in experiment [12]; 30.4 µM (inactive) in [13]; 18.7 µM (inactive) in experiment [14]; 97.5 µM (inactive) in [16]; 21.9 µM (inactive) in [17]; 30.1 µM (inactive) in [18]. Besides, in experiment [19], the GI50 was 20.1 µM (inactive).

In the case of `C=C1CC[C@@]2(OC1)OC1C[C@H]3[C@@H]4CC=C5C[C@@H](O)CC(OC6OCC(OC(=O)[C@@H](O)[C@@H](C)CC)C(OC(C)=O)C6OC6OC(C)C(O)C(O)C6O)[C@]5(C)[C@H]4CC[C@]3(C)C1[C@@H]2C` (stereo partly specified), the GI50 in [1] was 2.28 µM (inactive); in [2], 4.78 µM (inactive); in experiment [3] it was 2.04 µM (inactive); in experiment [20], 2.2 µM (inactive); in experiment [4] it was 1.83 µM (inactive); in experiment [5] it was 1.53 µM (inactive). Moreover, the GI50 in experiment [6] was 2.11 µM (inactive); in experiment [7], 2.56 µM (inactive); in experiment [8] it was 2.44 µM (inactive); in [9], 1.85 µM (inactive); in [10], 3.76 µM (inactive); in [11], 1.87 µM (inactive). Moreover, the GI50 in experiment [12] is 2 µM (inactive); in experiment [13] it was 3.4 µM (inactive); in experiment [14], 1.81 µM (inactive); in [15] it was 2.21 µM (inactive); in [16] it was 2.64 µM (inactive); in experiment [17], 2.81 µM (inactive). Further, the GI50 in experiment [18] was 1.97 µM (inactive); in experiment [19] it was 1.88 µM (inactive).

With `CCCCCCCCOC(=O)C12Oc3ccc(-c4ccc5c(c4O)C(=O)C4=C(O)CC(C)C(O)C4(C(=O)OCCCCCCCC)O5)c(O)c3C(=O)C1=C(O)CC(C)C2O` (stereo unspecified), the GI50 is 5.61 µM (inactive) in experiment [1]; 16.2 µM (inactive) in experiment [2]; 24 µM (inactive) in [3]; 18.2 µM (inactive) in experiment [20]; 18.7 µM (inactive) in [4]; 2.05 µM (inactive) in [5]. The GI50 was 20.9 µM (inactive) in experiment [6]; 8.67 µM (inactive) in experiment [7]; 10.2 µM (inactive) in experiment [8]; 24.2 µM (inactive) in [9]; 9.59 µM (inactive) in [10]; 25.5 µM (inactive) in [11]. For the same molecule, the GI50 is 4.99 µM (inactive) in [12]; 11.6 µM (inactive) in [13]; 2.92 µM (inactive) in experiment [14]; 34.8 µM (inactive) in [15]; 33.7 µM (inactive) in experiment [16]; 19.6 µM (inactive) in experiment [17]. Moreover, the GI50 in experiment [18] is 14.7 µM (inactive); in [19] it was 15.5 µM (inactive).

For `C=C(Cl)C(Cl)(CBr)CCCC(C)C` (stereo unspecified), the GI50 in [1] is 13.3 µM (inactive); in [2], > 21.2 µM (inactive); in [3], 19.9 µM (inactive); in experiment [20], 19.4 µM (inactive); in experiment [4], > 100 µM (inactive); in [5], > 57.5 µM (inactive). Further, the GI50 was 19.4 µM (inactive) in experiment [6]; > 100 µM (inactive) in [7]; > 100 µM (inactive) in experiment [8]; 6.89 µM (inactive) in experiment [9]; > 85.9 µM (inactive) in experiment [10]; > 100 µM (inactive) in [11]. In addition, the GI50 is 8.83 µM (inactive) in [12]; 7.19 µM (inactive) in [13]; 12.1 µM (inactive) in experiment [14]; 14.6 µM (inactive) in experiment [15]; > 100 µM (inactive) in [16]; 33 µM (inactive) in [17]. In addition, the GI50 in [18] was > 100 µM (inactive); in experiment [19], 16.4 µM (inactive).

With `FC(F)(F)c1nc2ccc(SSc3ccc4nc(C(F)(F)F)[nH]c4c3)cc2[nH]1`, the GI50 was 88.7 µM (inactive) in experiment [1]; 38.8 µM (inactive) in experiment [2]; > 100 µM (inactive) in experiment [3]; > 10 µM (inactive) in [20]; > 10 µM (inactive) in experiment [4]; > 10 µM (inactive) in experiment [5]. Besides, the GI50 in [6] was 33.9 µM (inactive); in experiment [7], > 10 µM (inactive); in experiment [8], 47.5 µM (inactive); in [9] it was 36.6 µM (inactive); in experiment [10] it was 92.7 µM (inactive); in [11], 40.5 µM (inactive). The GI50 in [12] was > 10 µM (inactive); in experiment [13], > 10 µM (inactive); in [14], 48.8 µM (inactive); in experiment [15] it was 35.9 µM (inactive); in [16], > 10 µM (inactive); in experiment [17] it was 61.5 µM (inactive). Moreover, the figures for the GI50 in experiment [18] and in [19] were 45.9 µM (inactive) and 79.3 µM (inactive), respectively.

Consider `Cc1ccc2c(O)cc(-c3ccc(C)s3)nc2n1`, for which the GI50 in [1] was 0.731 µM (active); in experiment [2], 0.506 µM (active); in experiment [3] it was 1.91 µM (inactive); in experiment [4], 0.746 µM (active); in experiment [5], 0.276 µM (active); in experiment [6], 0.459 µM (active). In addition, the GI50 in [7] is 0.44 µM (active); in experiment [8] it was 0.277 µM (active); in experiment [9], 0.34 µM (active); in [10] it was 0.804 µM (active); in experiment [11], 0.472 µM (active); in experiment [12], 0.254 µM (active). Further, the GI50 in [13] was 0.297 µM (active); in experiment [14] it was 0.0775 µM (active); in [15], 16.6 µM (inactive); in [16], 0.357 µM (active); in experiment [17], 12.7 µM (inactive); in experiment [18], 0.139 µM (active). Further, in experiment [19], the GI50 is 19.3 µM (inactive).

Consider `CC(C)(C)OC(=O)NC(Cc1ccc([N+](=O)[O-])cc1)C(=O)NCC(=O)OCc1ccccc1` (stereo unspecified) (Boc-[ξPhe(4-NO2)]-Gly-OBn), for which the GI50 in experiment [1] was 23 µM (inactive); in [2], 44.1 µM (inactive); in [3], > 100 µM (inactive); in [20], 24 µM (inactive); in experiment [4] it was 24.6 µM (inactive); in experiment [5], 13.9 µM (inactive). Further, the GI50 is 17.1 µM (inactive) in experiment [6]; > 100 µM (inactive) in experiment [7]; 20.2 µM (inactive) in experiment [8]; 19 µM (inactive) in experiment [9]; 25.7 µM (inactive) in experiment [10]; 14.1 µM (inactive) in experiment [11]. The GI50 in experiment [12] was 18.4 µM (inactive); in [13] it was 22.3 µM (inactive); in experiment [14] it was 36.1 µM (inactive); in experiment [16], 26.7 µM (inactive); in experiment [17], 25.9 µM (inactive); in experiment [18], 19.4 µM (inactive). Further, the GI50 in experiment [19] was > 100 µM (inactive).
